Reference: patent publication US10196362B2, “Carbamate compound and use thereof” (SUMITOMO CHEMICAL COMPANY, LIMITED, priority 2015, dated 2019)

How the values were obtained:
[1] = tested on: wheat speckled leaf blotch fungus (Septoria tritici); assay: Test Example 5: wheat speckled leaf blotch, foliar spray pot test; assay type: in vivo; details: wheat (Apogee), 500 ppm foliar spray, Formulation Example 6, inoculated after 4 days
[2] = tested on: soybean rust (Phakopsora pachyrhizi); assay: Test Example 7: soybean rust, foliar spray pot test; assay type: in vivo; details: soybean (Kurosengoku), 200 ppm foliar spray, Formulation Example 6, inoculated after 4 days

| SMILES | area of the lesion on treated plant relative to untreated plant [1] [%] | area of the lesion on treated plant relative to untreated plant [2] [%] |
| --- | --- | --- |
| COC(=O)N(OC)c1ccccc1COc1ccc(-n2nc(C)cc2C)cc1C [methyl N-(2-{[2-methyl-4-(3,5-dimethyl-1H-pyrazol-1-yl)phenoxy]methyl}phenyl)-N-methoxy carbamate] | ≥ 70 |  |
| COC(=O)Nc1ccccc1COc1ccc(-n2cccn2)cc1 [methyl N-(2-{[4-(1H-pyrazol-1-yl)phenoxy)methyl}phenyl)carbamate] |  | ≥ 70 |
